Legend:
Format in all cases: cell-based
[1] = target: T1, Ode(29-63-8), ACh-nAChR (Oesophagostomum dentatum, UniProt E5KIX9+L7MMZ7+V5J2B2); test: two-electrode voltage clamp, Xenopus oocytes, agonist dose-response
T1 construct: full-length cDNAs (UNC-29 497 aa, UNC-63 507 aa, ACR-8 538 aa), pTB-207, cRNA 1:1:1 in Xenopus laevis oocytes; heteropentamer, stoichiometry undetermined; with H. contortus chaperones RIC-3, UNC-50, UNC-74
T1 sequence (V5J2B2 21-497): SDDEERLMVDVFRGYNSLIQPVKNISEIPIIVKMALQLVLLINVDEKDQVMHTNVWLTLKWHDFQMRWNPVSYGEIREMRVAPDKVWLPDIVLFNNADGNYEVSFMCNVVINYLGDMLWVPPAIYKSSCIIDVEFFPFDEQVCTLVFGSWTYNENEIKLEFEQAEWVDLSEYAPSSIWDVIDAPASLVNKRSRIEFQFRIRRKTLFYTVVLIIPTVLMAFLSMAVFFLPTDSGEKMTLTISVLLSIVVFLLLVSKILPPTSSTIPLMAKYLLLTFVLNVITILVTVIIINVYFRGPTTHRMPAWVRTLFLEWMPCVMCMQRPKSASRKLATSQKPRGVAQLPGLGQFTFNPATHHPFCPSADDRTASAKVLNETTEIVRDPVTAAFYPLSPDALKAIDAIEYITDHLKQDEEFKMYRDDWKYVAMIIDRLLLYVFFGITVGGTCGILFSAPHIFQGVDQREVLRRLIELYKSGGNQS
T1 sequence (E5KIX9 22-507): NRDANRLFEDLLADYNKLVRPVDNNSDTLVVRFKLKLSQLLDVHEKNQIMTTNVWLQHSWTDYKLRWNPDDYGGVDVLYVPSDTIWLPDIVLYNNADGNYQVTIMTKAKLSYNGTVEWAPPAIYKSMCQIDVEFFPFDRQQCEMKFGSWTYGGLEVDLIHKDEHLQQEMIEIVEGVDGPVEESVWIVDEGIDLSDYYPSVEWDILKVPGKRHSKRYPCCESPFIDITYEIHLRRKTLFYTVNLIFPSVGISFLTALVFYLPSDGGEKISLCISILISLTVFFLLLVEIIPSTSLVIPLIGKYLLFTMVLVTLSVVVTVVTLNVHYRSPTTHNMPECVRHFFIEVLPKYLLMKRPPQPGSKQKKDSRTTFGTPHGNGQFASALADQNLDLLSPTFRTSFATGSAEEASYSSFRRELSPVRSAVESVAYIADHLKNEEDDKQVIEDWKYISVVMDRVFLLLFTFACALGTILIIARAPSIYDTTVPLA
T1 sequence (L7MMZ7 21-538): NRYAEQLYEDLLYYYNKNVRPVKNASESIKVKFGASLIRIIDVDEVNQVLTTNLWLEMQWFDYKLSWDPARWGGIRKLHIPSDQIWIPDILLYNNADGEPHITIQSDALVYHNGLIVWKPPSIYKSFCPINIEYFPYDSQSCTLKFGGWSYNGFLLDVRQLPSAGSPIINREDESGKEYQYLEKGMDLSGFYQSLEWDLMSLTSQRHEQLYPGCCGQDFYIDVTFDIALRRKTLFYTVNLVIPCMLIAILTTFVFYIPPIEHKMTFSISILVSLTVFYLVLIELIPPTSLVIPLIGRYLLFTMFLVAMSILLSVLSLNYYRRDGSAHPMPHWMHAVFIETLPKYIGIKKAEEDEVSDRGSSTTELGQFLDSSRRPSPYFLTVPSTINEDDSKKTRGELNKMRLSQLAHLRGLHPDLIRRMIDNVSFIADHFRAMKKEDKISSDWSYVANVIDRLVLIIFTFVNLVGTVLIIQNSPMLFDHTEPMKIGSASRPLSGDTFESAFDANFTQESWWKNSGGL
From the text: two-electrode voltage clamp, Xenopus oocytes, agonist dose-response on Ode(29-63-8), ACh-nAChR

[2] = target: T2, Ode(29-63-8-38), Lev-nAChR (Oesophagostomum dentatum, UniProt E5KIX9+L7MMZ7+V5J2B2+V5J336); test: as above
T2 construct: full-length cDNAs (UNC-29 497 aa, UNC-63 507 aa, ACR-8 538 aa, UNC-38 507 aa), pTB-207, cRNA 1:1:1:1 in Xenopus laevis oocytes; heteropentamer, stoichiometry undetermined; with H. contortus chaperones RIC-3, UNC-50, UNC-74
From the text: two-electrode voltage clamp, Xenopus oocytes, agonist dose-response on Ode(29-63-8-38), Lev-nAChR

[3] = target: T1, Ode(29-63-8), ACh-nAChR; test: voltage clamp, oocytes; single concentration current; settings: agonist, 30 µM

T2 sequence (V5J336 21-507, one chain of several): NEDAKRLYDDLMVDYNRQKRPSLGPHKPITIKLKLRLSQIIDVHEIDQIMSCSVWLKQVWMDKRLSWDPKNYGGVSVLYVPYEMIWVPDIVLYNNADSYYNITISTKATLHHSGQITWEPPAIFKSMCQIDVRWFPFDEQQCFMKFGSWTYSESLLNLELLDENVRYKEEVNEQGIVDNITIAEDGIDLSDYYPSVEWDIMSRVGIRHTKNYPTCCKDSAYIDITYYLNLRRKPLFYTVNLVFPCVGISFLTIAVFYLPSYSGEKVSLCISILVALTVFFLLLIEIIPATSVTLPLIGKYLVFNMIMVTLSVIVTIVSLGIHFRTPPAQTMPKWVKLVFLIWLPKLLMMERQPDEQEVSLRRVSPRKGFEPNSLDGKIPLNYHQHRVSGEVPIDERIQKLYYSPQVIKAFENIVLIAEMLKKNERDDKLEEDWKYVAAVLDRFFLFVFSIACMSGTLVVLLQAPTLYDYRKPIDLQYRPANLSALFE

SMILES | EC50 [1] [µM] | EC50 [2] [µM] | voltage clamp, oocytes; single concentration current [3]
CC(=O)OCC[N+](C)(C)C [acetylcholine] | 3.5 ± 0.2 | 4.2 ± 0.2 | –
C[N+](C)(CCOc1ccccc1)Cc1ccccc1 [bephenium] | – | – | responses to all the agonists we tested, including bephenium and thenium
